Key:
[1] = Cytotoxic test (MTT); format: cell-based; details: rat, PC12 cells, 48 h incubation
Experimental: (§1) After resuscitating, the PC12 cells were cultured in RPMI-1640 containing 10% horse serum and 5% Fetus Bovine Serum (FBS) under 5% CO2 at 37° C. for two weeks. The medium was changed every other day. The compounds were diluted into solutions of 12.5, 25, 50, 100, 200, 300 μM with culture medium (except examples 33-45 with additional solutions of 400 μM and 500 μM). The PC12 cells were seeded into a 96-well plate at a density of 1.2×10^4 cells/well and cultured in a 37° C., 5% CO2 incubator for 24 hours. Remove the medium, the cells were added with the compound solutions of different concentrations as test solutions for another 48 h incubation in a 37° C., 5% CO2 incubator.
(§2) After the incubation, the wells were added with 20 μL 5 mg/mL MTT and incubated for 4 hours at 37° C. Carefully removed the medium and added 150 μL DMSO. The plates were placed on an enzyme-labeled instrument and vibrated for 5 min. The absorbance Atest solution were obtained at 490 nm with the Ablank of the well without cells and the Acontrol of the well with untreated cells. The survival rates of the cells in every well were calculated by the formula as Survival rate (%)=(Atest solution−Ablank)/(Acontrol−Ablank)*100%

[2] = system: PC12 cells; test: In-vitro neuroprotection-I (H2O2 injury, MTT); format: cell-based; details: Rattus norvegicus, PC-12, 48 h compound, then 200 μM H2O2 24 h, MTT survival rate
Experimental: All samples were made into 60 mM stock solution by DMSO, which were 200 times diluted to 300 μM by medium. And the final concentration was further diluted into different concentrations by media.
Control: Normal cell-plating and same cell medium as other group. 24 hours later, the medium was discarded. Incubate the cell in new media for 24 hours. No compound and hydrogen peroxide treatment. Other steps were the same as the sample test as mentioned below did.
Blank: no cell plating, cell medium, and other steps were the same as the sample test as mentioned below did.
as §1, with “(except that” for “(except”, “The PC 12” for “The PC12”, “of 8×10^3” for “of 1.2×10^4”, “hours. Removed” for “hours. Remove”, “incubator. After the incubation, apart from the blank and control groups, the wells (including 0 μM drug group) were added to the medium-prepared 200 μM H2O2, and continued for another 24 h incubation in a 37° C., 5% CO2 incubator.” for “incubator.”
as §2, with “rate” for “rates”, “well” for “well were calculated”, “survival” for “as Survival”, “solution−Ablank)/(Acontrol−Ablank)*100%.” for “solution−Ablank)/(Acontrol−Ablank)*100%”

[3] = system: MCAO model (middle cerebral artery ischemia-reperfusion); test: In vivo drug efficacy test of MCAO model; details: SD rats, MCAO 2 h then reperfusion, tail vein infusion 30 min; for Cerebral infarction area (%): TTC staining, infarct area to whole brain area; for Improvements of nerve function (%): score at 24 h versus model control

Compound: Cc1cc(OCOC(=O)c2ccccc2)n(-c2ccccc2)n1 [Compound 18, (3-methyl-1-phenylpyrazol-5-) oxymethyl benzoate]
- IC50 at 48 h [1]: > 300 µM
- EC50 [2]: 75 µM

Compound: Cc1cc(OCNC(=O)Cc2ccccc2)n(-c2ccccc2)n1 [Compound 49, N-((1-phenyl-3-methyl-1H-pyrazol-5-yl)oxy) methylphenylacetamide]
- IC50 at 48 h [1]: > 300 µM

Compound: CCOC(=O)Oc1ccc(N(C)C)cc1C(=O)OCOc1cc(C)nn1-c1ccccc1 [Compound 25, (3-methyl-1-phenylpyrazole-5-) oxymethyl-(2-ethoxycarbonyloxy-5-N,N-dimethyl)benzoic Acid]
- IC50 at 48 h [1]: > 300 µM
- EC50 [2]: 59.3 µM

Compound: Cc1cc(OCNC(=O)c2ccccc2)n(-c2ccccc2)n1 [Compound 48, N-((1-phenyl-3-methyl-1H-pyrazol-5-yl)oxy) methylbenzamide]
- EC50 [2]: 123 µM

Compound: Cc1cc(OCNC(=O)C(C)C)n(-c2ccccc2)n1 [Compound 43, N-((1-phenyl-3-methyl-1H-pyrazol-5-yl)oxy) methylisobutyramide]
- Cerebral infarction area (%) [3]: 19.8%
- Improvements of nerve function (%) [3]: 16.1%
- EC50 [2]: 58.1 µM

Compound: Cc1cc(OC(C)OC(=O)CCCc2ccccc2)n(-c2ccccc2)n1 (centres unmarked) [Compound 9, 1-(3-methyl-1-phenylpyrazole)oxyethyl phenylbutyrate]
- IC50 at 48 h [1]: > 300 µM
- Cerebral infarction area (%) [3]: 19.8%
- Improvements of nerve function (%) [3]: 16.0%
- EC50 [2]: 120 µM

Compound: Cc1cc(OC(C)OC(=O)C(C)(C)C)n(-c2ccccc2)n1 (centres unmarked) [Compound 4, 1-(3-methyl-1-phenylpyrazole) oxyethyl pivalate]
- IC50 at 48 h [1]: > 300 µM
- EC50 [2]: 69.5 µM

Compound: Cc1cc(OCOC(=O)c2ccccc2O)n(-c2ccccc2)n1 [Compound 19, (3-methyl-1-phenylpyrazol-5-) oxymethyl-(2-hydroxy) benzoate]
- IC50 at 48 h [1]: > 300 µM

Compound: CCOC(=O)Oc1ccccc1C(=O)OCOc1cc(C)nn1-c1ccccc1 [Compound 21, (3-methyl-1-phenylpyrazole-5-) oxymethyl-(2-ethoxycarbonyloxy) benzoate]
- EC50 [2]: 82.1 µM

Compound: Cc1cc(OCNC(=O)C2CCCC2)n(-c2ccccc2)n1 [Compound 46, N-((1-phenyl-3-methyl-1H-pyrazol-5-yl)oxy) methylcyclopentylformamide]
- EC50 [2]: 90.1 µM

Compound: Cc1cc(OCNC(=O)C2CCCCC2)n(-c2ccccc2)n1 [Compound 47, N-((1-phenyl-3-methyl-1H-pyrazol-5-yl)oxy) methylcyclohexanecarboxamide]
- IC50 at 48 h [1]: 269 µM
- EC50 [2]: 53.6 µM

Compound: CC(=O)OCOc1cc(C)nn1-c1ccccc1 [Compound 26]
- IC50 at 48 h [1]: > 300 µM
- EC50 [2]: 54.8 µM

Compound: Cc1cc(OCNC(=O)C(C)(C)C)n(-c2ccccc2)n1 [Compound 44, N-((1-phenyl-3-methyl-1H-pyrazol-5-yl)oxy) methyltrimethylacetamide]
- EC50 [2]: 77.9 µM

Compound: Cc1cc(OCNC(=O)CCCc2ccccc2)n(-c2ccccc2)n1 [Compound 50, N-((1-phenyl-3-methyl-1H-pyrazol-5-yl)oxy) methylphenylbutyramide]
- EC50 [2]: 101 µM

Compound: CC(=O)OC(C)Oc1cc(C)nn1-c1ccccc1 (centres unmarked) [Compound 1]
- EC50 [2]: 66.4 µM

Compound: Cc1cc(OCNC(=O)C2CC2)n(-c2ccccc2)n1 [Compound 45, N-((1-phenyl-3-methyl-1H-pyrazol-5-yl)oxy) methylcyclopropylformamide]
- EC50 [2]: 75.3 µM

Compound: Cc1cc(OCOC(=O)C(C)C)n(-c2ccccc2)n1 [Compound 14, (3-methyl-1-phenylpyrazol-5-) oxymethyl isobutyrate]
- EC50 [2]: 45.2 µM

Compound: Cc1cc(OC(C)OC(=O)c2ccccc2)n(-c2ccccc2)n1 (centres unmarked) [Compound 7, 1-(3-methyl-1-phenylpyrazole) oxyethyl benzoate]
- IC50 at 48 h [1]: > 300 µM
- EC50 [2]: 88.9 µM

Compound: Cc1cc(OCOC(=O)C2CC2)n(-c2ccccc2)n1 [Compound 28]
- EC50 [2]: 85.9 µM

Compound: Cc1cc(OCOC(=O)c2cccnc2)n(-c2ccccc2)n1 [Compound 17, (3-methyl-1-phenylpyrazol-5-) oxymethyl nicotinate]
- IC50 at 48 h [1]: > 300 µM
- EC50 [2]: 94.9 µM

Compound: Cc1cc(OCOC(=O)CCCc2ccccc2)n(-c2ccccc2)n1 [Compound 16, (3-methyl-1-phenylpyrazol-5-) oxymethyl phenylbutyrate]
- IC50 at 48 h [1]: 234 µM
- Cerebral infarction area (%) [3]: 19.9%
- Improvements of nerve function (%) [3]: 16.2%
- EC50 [2]: 48 µM

Compound: Cc1cc(OCOC(=O)C2CCCCC2)n(-c2ccccc2)n1 [Compound 30]
- EC50 [2]: 77.2 µM

Compound: Cc1cc(OCOC(=O)c2ccccc2OC(=O)C(C)C)n(-c2ccccc2)n1 [Compound 22, (3-methyl-1-phenylpyrazol-5-)oxymethyl-(2-isobutyryloxy)benzoic acid]
- EC50 [2]: 103 µM

Compound: CCC(=O)NCOc1cc(C)nn1-c1ccccc1 [Compound 42, N-((1-phenyl-3-methyl-1H-pyrazol-5-yl)oxy) methyl propionamide]
- IC50 at 48 h [1]: > 300 µM
- Cerebral infarction area (%) [3]: 19.7%
- Improvements of nerve function (%) [3]: 15.9%
- EC50 [2]: 75.4 µM

Compound: CCCCCCCC(=O)OCOc1cc(C)nn1-c1ccccc1 [Compound 15, (3-methyl-1-phenylpyrazol-5-) oxymethyl octanoate]
- Cerebral infarction area (%) [3]: 20.0%
- Improvements of nerve function (%) [3]: 15.9%
- EC50 [2]: 67.2 µM

Compound: Cc1cc(OC(C)OC(=O)C(C)C)n(-c2ccccc2)n1 (centres unmarked) [Compound 3, 1-(3-methyl-1-phenylpyrazole) oxyethyl isobutyrate]
- IC50 at 48 h [1]: > 300 µM
- EC50 [2]: 98 µM

Compound: CCCCCCCCCCCCCCCCCC(=O)NCOc1cc(C)nn1-c1ccccc1 [Compound 52, N-((1-phenyl-3-methyl-1H-pyrazol-5-yl)oxy)methyl stearamide]
- EC50 [2]: 78.6 µM

Compound: CCCCCCCC(=O)OC(C)Oc1cc(C)nn1-c1ccccc1 (centres unmarked) [Compound 5, 1-(3-methyl-1-phenylpyrazole)oxyethyl octanoate]
- IC50 at 48 h [1]: > 300 µM

Compound: Cc1cc(OC(C)OC(=O)Cc2ccccc2)n(-c2ccccc2)n1 (centres unmarked) [Compound 8]
- EC50 [2]: 100 µM

Compound: Cc1cc(OCOC(=O)c2cccc(N(C)C)c2O)n(-c2ccccc2)n1 [Compound 23, (3-methyl-1-phenylpyrazol-5-) oxymethyl-(2-hydroxy-3-N,N-dimethyl)benzoate]
- EC50 [2]: 124 µM

Compound: CCCCCCCCCCCCCCCCCC(=O)OCOc1cc(C)nn1-c1ccccc1 [Compound 32]
- IC50 at 48 h [1]: > 300 µM
- EC50 [2]: 80.7 µM

Compound: CC(=O)NCOc1cc(C)nn1-c1ccccc1 [Compound 41, N-((1-phenyl-3-methyl-1H-pyrazol-5-yl)oxy) methylacetamide]
- EC50 [2]: 55.1 µM

Compound: Cc1cc(OCOC(=O)C(C)(C)C)n(-c2ccccc2)n1 [Compound 13, (3-methyl-1-phenylpyrazol-5-) oxymethyl pivalate]
- IC50 at 48 h [1]: 252 µM
- Cerebral infarction area (%) [3]: 17.5%
- Improvements of nerve function (%) [3]: 17.2%
- EC50 [2]: 110 µM

Compound: Cc1cc(OC(C)OC(=O)C2CCCCC2)n(-c2ccccc2)n1 (centres unmarked) [Compound 12]
- EC50 [2]: 89 µM

Compound: CCCCCCCCCCCCCCCCCC(=O)OC(C)Oc1cc(C)nn1-c1ccccc1 (centres unmarked) [Compound 6]
- EC50 [2]: 56.8 µM

Compound: Cc1cc(OC(C)OC(=O)C2CC2)n(-c2ccccc2)n1 (centres unmarked) [Compound 10]
- EC50 [2]: 55.7 µM

Compound: Cc1cc(OCOC(=O)Cc2ccccc2)n(-c2ccccc2)n1 [Compound 31]
- EC50 [2]: 91.2 µM

Reference: US11692004B2, “Substituted pyrazole compound, preparation method therefor, pharmaceutical composition and medical use thereof” (JIANGSU VANGUARD PHARMACEUTICAL CO., LTD., priority 2018, dated 2023)
